Experimental data as given in patent US6403632B1, “Lactam metalloprotease inhibitors” (priority 2000, dated 2002).

Tested on: cartilage degradation
Assay: Acute Cartilage Degradation Rat Model
Type: in vivo
Conditions: rats
Excerpt: Acute Cartilage Degradation Rat Model A novel in vivo model of acute cartilage degradation in rats has been characterized as a method to determine the proteoglycan content in the synovial fluid after the induction of cartilage degradation.

With `COc1ccc2c(c1)c(CC(=O)O)c(C)n2C(=O)c1ccc(Cl)cc1` [Indomethacin] the “inhibition of cartilage degradation, as measured by increased proteoglycan content in the synovial fluid” value was “inactive”.
